Experiments:
[1] = system: Fusarium graminearum; type: cell-based; settings: ethanol as solvent; 500 uL medium lyophilized; HPLC can detect down to ng/sample
[2] = system: Aspergillus parasiticus; type: cell-based

SMILES	DON detection by HPLC analysis [1]	effect on aflatoxin accumulation in culture (in words) [2]	reduction of aflatoxin levels ([2]; 25 ppm, liquid culture, TLC analysis)	lowest effective concentration for reducing aflatoxin levels ([2]; liquid culture, TLC analysis)
COc1cc(/C=C/C(=O)N2CCCC2)ccc1O [Compound 2]	some DON was detected			
CCC=CCC=CCC=CCCCCCCCC(=O)N1CCCCC1 [Compound 7]	not detected	reduced aflatoxin accumulation in culture, but the effect was inconsistent from one trial to the next		
COc1cc(/C=C/C(=O)N2CCCCC2)ccc1O [Compound 1]	some DON was detected			
COc1cc(/C=C/C(=O)N2CCCCC2=O)ccc1O [Compound 3, (E)-1-(3-(4-hydroxy-3-methyoxyphenyl)acryloyl)piperidin-2-one]	not detected		up to 80%	25 ppm
